Calls of active or inactive are those of the source. The calls are words filed in the database; no cut-off is given here. Numbered stars: 1 amine (or outer) side, 2 acyl side, 3 side chain; on linkers, the order of the positions; unused ones are H or OH. Bridge positions count the residues as written; N and C are the ends. Square brackets hold non-standard residues; d marks the D form. Peptide text beside a SMILES is read from it. * marks the point of attachment. hTyr(3S-OH,4S-OH,3'-OSO3H) = N[C@H](C(=O)O)[C@H](O)[C@@H](O)c1ccc(O)c(OS(=O)(=O)O)c1; Orn(4R-OH,5R-OH) = O=C([C@H](C[C@@H](O)[C@@H](O)N[*:3])N[*:1])[*:2]; Pro(3S-OH,4S-Me) = C[C@H]1CN[C@H](C(=O)O)[C@H]1O; X1 = CCCCCOc1ccc(-c2cc(-c3ccc(C(=O)*)cc3)no2)cc1; Gln(3R-OH) = NC(=O)C[C@@H](O)[C@H](N)C(=O)O; Hyp = O=C(O)[C@@H]1C[C@@H](O)CN1
How the values were obtained:
Aspergillus fumigatus [1] = assay: Antifungal activity against nongerminated Aspergillus fumigatus assessed as lowest drug concentration that produced short, stubby and highly branched hyphae after 48 hrs by microscopic analysis; assay type: functional; conditions: read-out: MEC
Aspergillus fumigatus [2] = assay: Antifungal activity against germinated Aspergillus fumigatus assessed as lowest drug concentration that produced short, stubby and highly branched hyphae after 48 hrs by microscopic analysis; assay type: functional; conditions: read-out: MEC
Aspergillus fumigatus [3] = assay: Ratio of log2 of MEC for germinated Aspergillus fumigatus to log2 of MEC for nongerminated Aspergillus fumigatus; assay type: functional
Aspergillus terreus [4] = assay: Antifungal activity against nongerminated Aspergillus terreus assessed as lowest drug concentration that produced short, stubby and highly branched hyphae after 48 hrs by microscopic analysis; assay type: functional; conditions: read-out: MEC
Aspergillus terreus [5] = assay: Antifungal activity against germinated Aspergillus terreus assessed as lowest drug concentration that produced short, stubby and highly branched hyphae after 48 hrs by microscopic analysis; assay type: functional; conditions: read-out: MEC
Aspergillus terreus [6] = assay: Ratio of log2 of MEC for germinated Aspergillus terreus to log2 of MEC for nongerminated Aspergillus terreus; assay type: functional
Aspergillus flavus [7] = assay: Antifungal activity against nongerminated Aspergillus flavus assessed as lowest drug concentration that produced short, stubby and highly branched hyphae after 48 hrs by microscopic analysis; assay type: functional; conditions: read-out: MEC
Aspergillus flavus [8] = assay: Antifungal activity against germinated Aspergillus flavus assessed as lowest drug concentration that produced short, stubby and highly branched hyphae after 48 hrs by microscopic analysis; assay type: functional; conditions: read-out: MEC
Aspergillus flavus [9] = assay: Ratio of log2 of MEC for germinated Aspergillus flavus to log2 of MEC for nongerminated Aspergillus flavus; assay type: functional
Aspergillus fumigatus [10] = assay: Antifungal activity against nongerminated Aspergillus fumigatus assessed as short, stubby and highly branched hyphae after 48 hrs by microscopy analysis; assay type: functional, organism-based
Aspergillus fumigatus [11] = assay: Effect on nongerminated Aspergillus fumigatus metabolic activity assessed as drug concentration at which fungal metabolic activity occurs after 2 hrs by XTT assay; assay type: functional
Aspergillus fumigatus [12] = assay: Effect on germinated Aspergillus fumigatus metabolic activity assessed as drug concentration at which fungal metabolic activity occurs after 2 hrs by XTT assay; assay type: functional
Aspergillus fumigatus [13] = assay: Effect on Aspergillus fumigatus metabolic activity assessed number of twofold drug dilutions required for germinated fungal metabolic activity to nongerminated fungal metabolic activity; assay type: functional
Aspergillus terreus [14] = assay: Effect on nongerminated Aspergillus terreus metabolic activity assessed as drug concentration at which fungal metabolic activity occurs after 2 hrs by XTT assay; assay type: functional
Aspergillus terreus [15] = assay: Effect on germinated Aspergillus terreus metabolic activity assessed as drug concentration at which fungal metabolic activity occurs after 2 hrs by XTT assay; assay type: functional
Aspergillus terreus [16] = assay: Effect on Aspergillus terreus metabolic activity assessed number of twofold drug dilutions required for germinated fungal metabolic activity to nongerminated fungal metabolic activity; assay type: functional
Aspergillus flavus [17] = assay: Effect on nongerminated Aspergillus flavus metabolic activity assessed as drug concentration at which fungal metabolic activity occurs after 2 hrs by XTT assay; assay type: functional
Aspergillus flavus [18] = assay: Effect on germinated Aspergillus flavus metabolic activity assessed as drug concentration at which fungal metabolic activity occurs after 2 hrs by XTT assay; assay type: functional
Aspergillus flavus [19] = assay: Effect on Aspergillus flavus metabolic activity assessed number of twofold drug dilutions required for germinated fungal metabolic activity to nongerminated fungal metabolic activity; assay type: functional
Aspergillus fumigatus [20] = assay: Induction of maximal metabolic inhibition in nongerminated Aspergillus fumigatus assessed as minimal metabolic activity Ymin after 2 hrs by XTT assay; assay type: functional; parameters: scale not given: the % may be the effect or the level left
Aspergillus fumigatus [21] = assay: Induction of maximal metabolic inhibition in germinated Aspergillus fumigatus assessed as minimal metabolic activity Ymin after 2 hrs by XTT assay; assay type: functional; parameters: scale not given: the % may be the effect or the level left
Aspergillus terreus [22] = assay: Induction of maximal metabolic inhibition in nongerminated Aspergillus terreus assessed as minimal metabolic activity Ymin after 2 hrs by XTT assay; assay type: functional; parameters: scale not given: the % may be the effect or the level left
Aspergillus terreus [23] = assay: Induction of maximal metabolic inhibition in germinated Aspergillus terreus assessed as minimal metabolic activity Ymin after 2 hrs by XTT assay; assay type: functional; parameters: scale not given: the % may be the effect or the level left
Aspergillus flavus [24] = assay: Induction of maximal metabolic inhibition in nongerminated Aspergillus flavus assessed as minimal metabolic activity Ymin after 2 hrs by XTT assay; assay type: functional; parameters: scale not given: the % may be the effect or the level left
Aspergillus flavus [25] = assay: Induction of maximal metabolic inhibition in germinated Aspergillus flavus assessed as minimal metabolic activity Ymin after 2 hrs by XTT assay; assay type: functional; parameters: scale not given: the % may be the effect or the level left
Aspergillus fumigatus [26] = assay: Antifungal activity against nongerminated Aspergillus fumigatus assessed as absence of visual fungal growth at 128 ug/mL; assay type: functional, organism-based
Aspergillus fumigatus [27] = assay: Antifungal activity against germinated Aspergillus fumigatus assessed as absence of visual fungal growth at 128 ug/mL; assay type: functional, organism-based
Aspergillus terreus [28] = assay: Antifungal activity against nongerminated Aspergillus terreus assessed as absence of visual fungal growth at 128 ug/mL; assay type: functional, organism-based
Aspergillus terreus [29] = assay: Antifungal activity against germinated Aspergillus terreus assessed as absence of visual fungal growth at 128 ug/mL; assay type: functional, organism-based
Aspergillus flavus [30] = assay: Antifungal activity against nongerminated Aspergillus flavus assessed as absence of visual fungal growth at 128 ug/mL; assay type: functional, organism-based
Aspergillus flavus [31] = assay: Antifungal activity against germinated Aspergillus flavus assessed as absence of visual fungal growth at 128 ug/mL; assay type: functional, organism-based
Aspergillus fumigatus [32] = assay: Antifungal activity against nongerminated Aspergillus fumigatus assessed as absence of visual fungal growth at 64 ug/mL; assay type: functional, organism-based
Aspergillus fumigatus [33] = assay: Antifungal activity against germinated Aspergillus fumigatus assessed as absence of visual fungal growth at 64 ug/mL; assay type: functional, organism-based
Aspergillus terreus [34] = assay: Antifungal activity against nongerminated Aspergillus terreus assessed as absence of visual fungal growth at 64 ug/mL; assay type: functional, organism-based
Aspergillus terreus [35] = assay: Antifungal activity against germinated Aspergillus terreus assessed as absence of visual fungal growth at 64 ug/mL; assay type: functional, organism-based
Aspergillus flavus [36] = assay: Antifungal activity against nongerminated Aspergillus flavus assessed as absence of visual fungal growth at 64 ug/mL; assay type: functional, organism-based
Aspergillus flavus [37] = assay: Antifungal activity against germinated Aspergillus flavus assessed as absence of visual fungal growth at 64 ug/mL; assay type: functional, organism-based

## CCCCCOc1ccc(-c2cc(-c3ccc(C(=O)N[C@H]4C[C@@H](O)[C@@H](O)NC(=O)[C@@H]5[C@@H](O)[C@@H](C)CN5C(=O)[C@H]([C@H](O)CC(N)=O)NC(=O)[C@H]([C@H](O)[C@@H](O)c5ccc(O)c(OS(=O)(=O)O)c5)NC(=O)[C@@H]5C[C@@H](O)CN5C(=O)[C@H]([C@@H](C)O)NC4=O)cc3)no2)cc1 [MICAFUNGIN] (X1-[Orn(4R-OH,5R-OH)]T[Hyp][hTyr(3S-OH,4S-OH,3'-OSO3H)][Gln(3R-OH)][Pro(3S-OH,4S-Me)]; lactam 1-C)
Aspergillus fumigatus [1]
  minimal effective concentration: 0.06 µg/mL
Aspergillus fumigatus [2]
  minimal effective concentration: 0.25 µg/mL
Aspergillus fumigatus [3]
  Ratio: 1
Aspergillus terreus [4]
  minimal effective concentration: 0.12 µg/mL
Aspergillus terreus [5]
  minimal effective concentration: 0.25 µg/mL
Aspergillus terreus [6]
  Ratio: 1
Aspergillus flavus [7]
  minimal effective concentration: 0.12 µg/mL
Aspergillus flavus [8]
  minimal effective concentration: 0.5 µg/mL
Aspergillus flavus [9]
  Ratio: 2
Aspergillus fumigatus [10]
  Activity: Active
Aspergillus fumigatus [11]
  EC5: 0.04 µg/mL
Aspergillus fumigatus [12]
  EC5: 0.05 µg/mL
Aspergillus fumigatus [13]
  Ratio: 0.67
Aspergillus terreus [14]
  EC5: 0.07 µg/mL
Aspergillus terreus [15]
  EC5: 0.14 µg/mL
Aspergillus terreus [16]
  Ratio: 2.04
Aspergillus flavus [17]
  EC5: 0.05 µg/mL
Aspergillus flavus [18]
  EC5: 0.14 µg/mL
Aspergillus flavus [19]
  Ratio: 1.57
Aspergillus fumigatus [20]
  Activity: 25%
Aspergillus fumigatus [21]
  Activity: 29%
Aspergillus terreus [22]
  Activity: 29%
Aspergillus terreus [23]
  Activity: 37%
Aspergillus flavus [24]
  Activity: 17%
Aspergillus flavus [25]
  Activity: 20%
Aspergillus fumigatus [26]
  Activity: inactive
Aspergillus fumigatus [27]
  Activity: inactive
Aspergillus terreus [28]
  Activity: inactive
Aspergillus terreus [29]
  Activity: inactive
Aspergillus flavus [30]
  Activity: inactive
Aspergillus flavus [31]
  Activity: inactive
Aspergillus fumigatus [32]
  Activity: inactive
Aspergillus fumigatus [33]
  Activity: inactive
Aspergillus terreus [34]
  Activity: inactive
Aspergillus terreus [35]
  Activity: inactive
Aspergillus flavus [36]
  Activity: inactive
Aspergillus flavus [37]
  Activity: inactive

— ChEMBL document CHEMBL1153552, “Comparative in vitro pharmacodynamics of caspofungin, micafungin, and anidulafungin against germinated and nongerminated Aspergillus conidia” (2008)
